“And” between values parts separate entries of the source, which are not always exact repeats. Equal values may be shown once.
Legend:
patients with AML [1] = assay: Safety and tolerability; format: in vivo
[2] = Pharmacokinetics, plasma AMG 900 by LC-MS/MS after multiple oral administrations; format: in vivo; settings: human
[3] = system: phosphorylated histone H3 (pHH3) in peripheral blood leukemic blasts; assay: Pharmacodynamics: flow cytometric pHH3 assay in whole blood; format: in vivo, human; settings: as early as 1 hour after treatment; regardless of dosing schedule; transient
patients with AML [4] = assay: Efficacy: objective response by Cheson response criteria; format: in vivo, human
AML blasts = settings: cited from earlier work
[5] = Total, all doses and schedules (n = 35)

Cc1csc(-c2nnc(Nc3ccc(Oc4ncccc4-c4ccnc(N)n4)cc3)c3ccccc23)c1 [AMG 900, N-(4-(3-(2-aminopyrimidin-4-yl)pyridin-2-yloxy)phenyl)-4-(4-methylthiophen-2-yl)p hthalazin-1-amine]
Treatment-related adverse events by grade: Fatal (patients with AML [1]; 15 mg, 4 days on/10 days off (n = 4)): 0 (0) n (%) | Treatment-related adverse events by grade: Fatal (patients with AML [1]; 25 mg, 4 days on/10 days off (n = 3)): 0 (0) n (%) | Treatment-related adverse events by grade: Fatal (patients with AML [1]; 30 mg, 7 days on/7 days off (n = 3)): 0 (0) n (%) | Treatment-related adverse events by grade: Fatal (patients with AML [1]; 40 mg, 4 days on/10 days off (n = 7)): 1 (14) n (%) | Treatment-related adverse events by grade: Fatal (patients with AML [1]; 40 mg, 7 days on/7 days off (n = 4)): 0 (0) n (%) | Treatment-related adverse events by grade: Fatal (patients with AML [1]; 50 mg, 7 days on/7 days off (n = 6)): 1 (17) n (%) | Treatment-related adverse events by grade: Fatal (patients with AML [1]; 60 mg, 4 days on/10 days off (n = 4)): 0 (0) n (%) | Treatment-related adverse events by grade: Fatal (patients with AML [1]; 80 mg, 4 days on/10 days off (n = 3)): 0 (0) n (%) | Treatment-related adverse events by grade: Fatal (patients with AML [1]; 100 mg, 4 days on/10 days off (n = 1)): 0 (0) n (%) | Grade ≥ 3 treatment-related adverse events: Device-related infection (patients with AML [1]; [5]): 2 (6) n (%) | Grade ≥ 3 treatment-related adverse events: Septic shock (patients with AML [1]; [5]): 2 (6) n (%) | Treatment-related adverse events by grade: Fatal (patients with AML [1]; [5]): 2 (6) n (%) | Treatment-related adverse events, all grades: Mucosal inflammation (patients with AML [1]; [5]): 4 (11) n (%) | Treatment-related adverse events, all grades: Nausea (patients with AML [1]; [5]): 11 (31) n (%) | Treatment-related adverse events, all grades: Rash (patients with AML [1]; [5]): 4 (11) n (%) | Treatment-related adverse events, all grades: Vomiting (patients with AML [1]; [5]): 6 (17) n (%) | maximum tolerated dose (MTD) (patients with AML [1]; either dosing schedule): not formally reached | Any treatment-related adverse events (patients with AML [1]; human, in vivo): 30 (86) n (%) | Grade ≥ 3 treatment-related adverse events: Diarrhea (patients with AML [1]; human, in vivo): 2 (6) n (%) | Grade ≥ 3 treatment-related adverse events: Febrile neutropenia (patients with AML [1]; human, in vivo): 10 (29) n (%) | Grade ≥ 3 treatment-related adverse events: Pancytopenia (patients with AML [1]; human, in vivo): 2 (6) n (%) | Grade ≥ 3 treatment-related adverse events: Thrombocytopenia (patients with AML [1]; human, in vivo): 2 (6) n (%) | Treatment-related adverse events by grade: Grade ≥ 3 (patients with AML [1]; human, in vivo): 16 (46) n (%) | Treatment-related adverse events by grade: Grade ≥ 4 (patients with AML [1]; human, in vivo): 5 (14) n (%) | Treatment-related adverse events, all grades: Alopecia (patients with AML [1]; human, in vivo): 5 (14) n (%) | Treatment-related adverse events, all grades: Diarrhea (patients with AML [1]; human, in vivo): 10 (29) n (%) | Treatment-related adverse events, all grades: Dyspnea (patients with AML [1]; human, in vivo): 4 (11) n (%) | Treatment-related adverse events, all grades: Epistaxis (patients with AML [1]; human, in vivo): 4 (11) n (%) | Treatment-related adverse events, all grades: Fatigue (patients with AML [1]; human, in vivo): 8 (23) n (%) | Treatment-related adverse events, all grades: Febrile neutropenia (patients with AML [1]; human, in vivo): 10 (29) n (%) | median (range) duration of febrile neutropenia (patients with AML [1]; human, in vivo): 8 (1, 45) days | serious treatment-related AE: device-related infection (patients with AML [1]; human, in vivo): 6% | serious treatment-related AE: febrile neutropenia (patients with AML [1]; human, in vivo): 26% | serious treatment-related AE: septic shock (patients with AML [1]; human, in vivo): 6% | treatment-related AE, any grade: alopecia (patients with AML [1]; human, in vivo): 14% | treatment-related AE, any grade: nausea (patients with AML [1]; human, in vivo): 31% | treatment-related AE, any grade: vomiting (patients with AML [1]; human, in vivo): 17% | tolerability of highest dose evaluated (patients with AML [1]; in vivo): tolerated | patients with serious treatment-related AEs (patients with AML [1]; overall, 11 patients): 31% | patients who discontinued AMG 900 treatment due to AEs (patients with AML [1]; overall, five patients): 14% | patients who died during the study (patients with AML [1]; overall, nine patients, two deaths considered treatment-related): 26% | AUC(0-t) ([2]; 15 mg): 1380 ng·h/mL | Cmax ([2]; 15 mg): 501 ng/mL | AUC(0-t) ([2]; 25 mg): 2740 ng·h/mL | Cmax ([2]; 25 mg): 951 ng/mL | AUC(0-t) ([2]; 40 mg): 4360 ng·h/mL | Cmax ([2]; 40 mg): 1600 ng/mL | AUC(0-t) ([2]; 60 mg): 5620 ng·h/mL | Cmax ([2]; 60 mg): 1890 ng/mL | AUC(0-t) ([2]; 80 mg): 3210 ng·h/mL | Cmax ([2]; 80 mg): 1430 ng/mL | AUC(0-t) ([2]; 100 mg): 10200 ng·h/mL | Cmax ([2]; 100 mg): 3670 ng/mL | inhibition of pHH3 expression in whole blood [3]: clear inhibition of pHH3 expression | objective response rate (patients with AML [4]; all patients, any dose, either schedule, 80% confidence interval: 3%, 18%): 9% | duration of response (patients with AML [4]; individual values of the three responders, 1.5 months is a censored observation): 3 months and 1.5 months and < 1 months

COc1cc(Nc2ncc3c(n2)-c2ccc(Cl)cc2C(c2c(F)cccc2OC)=NC3)ccc1C(=O)O [MLN8237]
apoptosis of AML blasts (AML blasts): induced apoptosis | proliferation of AML blasts (AML blasts): inhibited proliferation

Source: paper PMC5925751 (American journal of hematology, 2017)
